Patent publication US11673871B2, “Certain (2S)-N-[(1S)-1-cyano-2-phenylethyl]-1,4-oxazepane-2-carboxamides as dipeptidyl peptidase 1 inhibitors” (AstraZeneca AB, priority 2014, dated 2023)

experiment: Test B: In-vitro competitive aortic tissue binding assay; conditions: 100 μM compound pre-incubated overnight at 37° C. with rat aortic homogenate, competition with 100 μM [14C] WO2010/128324 Ex. 3
Method: To assist the design of DPP1 inhibitors with a decreased risk of binding to elastin rich tissues, such as the aorta, the in-vitro competitive aortic binding assay disclosed below (Test B) was developed to facilitate the selection process.
Test B: In-vitro competitive aortic tissue binding assay Aortic homogenate was prepared from the thoracic aortae of Han Wistar rats. Freshly isolated thoracic aortae were frozen, and later thawed and stripped of non-elastic material. […] Homogenate concentration was adjusted to 30 mg/mL in Puck's saline, and aliquots were stored at −80° C. until use. Positive and negative control compounds and test compounds were made up to 100 mM in DMSO, and added to 1 mL aliquots of aortic homogenate in Puck's saline for a final concentration of 100 μM. Homogenate samples were pre-incubated with test compounds at 37° C., rotating, overnight. [^14C]4-Amino-N-[(1S)-1-cyano-2-(4′-cyanobiphenyl-4-yl)ethyl]tetrahydro-2H-pyran-4-carboxamide was then added to all samples to a final concentration of 100 μM, and samples were incubated at 37° C., rotating, for a further 2 h. Protein was precipitated from each sample by the addition of 10 mL acetone, pre-chilled to −20° C. Samples were left overnight at −20° C. to allow complete precipitation. Precipitate was pelleted by centrifugation at 4,500×g at 4° C. for 20 min, an aliquot of supernatant was removed for analysis, and the remainder of the supernatant discarded. Precipitate was washed by resuspension in 10 mL 80% methanol in distilled water, and re-pelleted by centrifugation at 4,500×g at 4° C. for 20 min. […] After final wash, precipitate was air-dried, and dissolved overnight in 1 mL NCSII Tissue Solubiliser. 1 mL aliquots of supernatants were added to 5 mL Ultima Gold scintillation fluid (Perkin Elmer, MA, U.S.A.), and 1 mL solubilised pellets were added to 5 mL Hionic-Fluor scintillation fluid (Perkin Elmer, MA, U.S.A.). Radioactivity of samples was determined on a Beckman LS6500 multipurpose scintillation counter (Beckman Coulter, IN, U.S.A.). […] Duplicate samples were tested for each compound on each experimental occasion, and at least two experiments were run for each test compound. […] 1-way ANOVA and Bonferroni's multiple comparison tests were performed to calculate significance of differences from vehicle control.

SMILES	Aortic Tissue Binding
Cn1c(=O)oc2ccc(-c3ccc(C[C@@H](C#N)NC(=O)[C@@H]4CNCCCO4)cc3)cc21 [Example 2, (2S)-N-{(1S)-1-Cyano-2-[4-(3-methyl-2-oxo-2,3-dihydro-1,3-benzoxazol-5-yl)phenyl]ethyl}-1,4-oxazepane-2-carboxamide]	No binder
N#Cc1ccc(-c2ccc(C[C@@H](C#N)NC(=O)[C@@H]3CCCCN3)cc2)cc1 [WO2009/074829 (Example 24)]	Binder
Cn1c(=O)oc2ccc(-c3ccc(C[C@@H](C#N)NC(=O)[C@@H]4CCCCN4)cc3)cc21 [WO2009/074829 (Example 96)]	Medium binder
N#Cc1ccc(-c2ccc(C[C@@H](C#N)NC(=O)C3(N)CCOCC3)cc2)cc1 [WO2010/128324 (Ex. 3), 4-amino-N-[(1S)-1-cyano-2-(4′-cyanobiphenyl-4-yl)ethyl]tetrahydro-2H-pyran-4-carboxamide]	Strong binder (reference)
Cn1c(=O)oc2ccc(-c3ccc(C[C@@H](C#N)NC(=O)C4(N)CCOCC4)cc3)cc21 [WO2010/128324 (Example 17)]	Strong binder
